Laboratory results reported in patent US7074420B2, “Cosmetic treatment using a new retinoid” (Avon Products, Inc., priority 2001, dated 2006).

Experiment: stability of compositions (lasting white color, no yellowing over time)
Format: physicochemical
Settings: particularly in a stick product form
Excerpt: This is evidenced by a lasting white color of the present compositions, without the manifestation of yellowing over time, particularly in a stick product form. The present compositions can also be in other cosmetic product forms, such as, for example, an emulsion, a gel, a lip balm, a lip gloss, a lipstick, a lotion, a mask, an ointment, a patch, a pomade, a solution, a spray, or a towelette.

SMILES: CC(C=CC1=C(C)CCCC1(C)C)=CC=CC(C)=CCO[Si](C)(C)C [retinoxytrimethylsilane]
- stability of compositions compared to prior art: more stable compositions than those of the prior art
